Test system: HCV genotype-1a variant with glutamine 30 changed to glutamate in the NS5A protein
Assay type: cell-based
Details: test compound titrated with BMS-790052 fixed at 200 nM; genotype 1a Q30E replicon
How it was run: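 Synergy was assessed by combining several fixed amounts of an NS5A-targeting compound with a titration of the second compound of interest.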

Row | SMILES | Fold-Synergistic 1a (Q30E)
1 | Cc1cc(C(=O)N[C@H](c2ncc(-c3ccc(-c4ccc(-c5cnc([C@@H](NC(=O)c6cc(C)oc6C(F)(F)F)C(C)C)[nH]5)cc4)cc3)[nH]2)C(C)C)c(C(F)(F)F)o1 [Compound S-102] | >100 fold
2 | CC(C)[C@H](NC(=O)c1ccc(C(F)(F)F)nc1)c1ncc(-c2ccc(-c3ccc(-c4cnc([C@@H](NC(=O)c5ccc(C(F)(F)F)nc5)C(C)C)[nH]4)cc3)cc2)[nH]1 [Compound S-103] | >100 fold
3 | Cc1oncc1C(=O)N[C@H](c1ncc(-c2ccc(-c3ccc(-c4cnc([C@@H](NC(=O)c5cnoc5C)C(C)C)[nH]4)cc3)cc2)[nH]1)C(C)C [Compound S-104] | >100 fold
4 | CC(C)[C@H](NC(=O)c1nccn1C)c1ncc(-c2ccc(-c3ccc(-c4cnc([C@@H](NC(=O)c5nccn5C)C(C)C)[nH]4)cc3)cc2)[nH]1 [Compound S-105] | <10 fold
5 | O=C(C1CC1)N1CCC[C@H]1c1ncc(-c2ccc(-c3ccc(-c4cnc([C@@H]5CCCN5C(=O)C5CC5)[nH]4)cc3)cc2)[nH]1 [Compound S-109] | <10 fold
6 | CC(C)CC(=O)N1CCC[C@H]1c1ncc(-c2ccc(-c3ccc(C4=CNC([C@@H]5CCCN5C(=O)CC(C)C)N4)cc3)cc2)[nH]1 (stereo partly drawn) [Compound S-112] | <10 fold
7 | O=C(c1ccccc1Oc1ccccc1)N1CCC[C@H]1c1ncc(-c2ccc(-c3ccc(-c4cnc([C@@H]5CCCN5C(=O)c5ccccc5Oc5ccccc5)[nH]4)cc3)cc2)[nH]1 [Compound S-114] | <10 fold
8 | O=C(c1cccc(Oc2ccccc2)c1)N1CCC[C@H]1c1ncc(-c2ccc(-c3ccc(-c4cnc([C@@H]5CCCN5C(=O)c5cccc(Oc6ccccc6)c5)[nH]4)cc3)cc2)[nH]1 [Compound S-116] | <10 fold
9 | O=C(c1ccc(-c2ccccc2)cc1)N1CCC[C@H]1c1ncc(-c2ccc(-c3ccc(-c4cnc([C@@H]5CCCN5C(=O)c5ccc(-c6ccccc6)cc5)[nH]4)cc3)cc2)[nH]1 [Compound S-117] | >10 fold
10 | Cc1onc(-c2ccccc2)c1C(=O)N1CCC[C@H]1c1ncc(-c2ccc(-c3ccc(-c4cnc([C@@H]5CCCN5C(=O)c5c(-c6ccccc6)noc5C)[nH]4)cc3)cc2)[nH]1 [Compound S-118] | <10 fold
11 | O=C(c1cccc2ccccc12)N1CCC[C@H]1c1ncc(-c2ccc(-c3ccc(-c4cnc([C@@H]5CCCN5C(=O)c5cccc6ccccc56)[nH]4)cc3)cc2)[nH]1 [Compound S-119] | >10 fold
12 | O=C(c1cc2ccccc2[nH]1)N1CCC[C@H]1c1ncc(-c2ccc(-c3ccc(-c4cnc([C@@H]5CCCN5C(=O)c5cc6ccccc6[nH]5)[nH]4)cc3)cc2)[nH]1 [Compound S-120] | <10 fold
13 | O=C(c1ccc2c(c1)OCO2)N1CCC[C@H]1c1ncc(-c2ccc(-c3ccc(-c4cnc([C@@H]5CCCN5C(=O)c5ccc6c(c5)OCO6)[nH]4)cc3)cc2)[nH]1 [Compound S-121] | <10 fold
14 | O=C(c1cc2ccccc2o1)N1CCC[C@H]1c1ncc(-c2ccc(-c3ccc(-c4cnc([C@@H]5CCCN5C(=O)c5cc6ccccc6o5)[nH]4)cc3)cc2)[nH]1 [Compound S-122] | >10 fold
15 | O=C(c1cnc(Cl)c(Cl)c1)N1CCC[C@H]1c1ncc(-c2ccc(-c3ccc(C4=CNC([C@@H]5CCCN5C(=O)c5cnc(Cl)c(Cl)c5)N4)cc3)cc2)[nH]1 (stereo partly drawn) [Compound S-133] | <10 fold
16 | O=C(N1CCC[C@H]1c1ncc(-c2ccc(-c3ccc(-c4cnc([C@@H]5CCCN5C(=O)C5(c6ccc(F)cc6Cl)CCCC5)[nH]4)cc3)cc2)[nH]1)C1(c2ccc(F)cc2Cl)CCCC1 [Compound S-156] | <10 fold
17 | O=C(C1Cc2ccccc2O1)N1CCC[C@H]1c1ncc(-c2ccc(-c3ccc(-c4cnc([C@@H]5CCCN5C(=O)C5Cc6ccccc6O5)[nH]4)cc3)cc2)[nH]1 (stereo partly drawn) [Compound S-157] | >10 fold
18 | CC1(C(=O)N2CCC[C@H]2c2ncc(-c3ccc(-c4ccc(-c5cnc([C@@H]6CCCN6C(=O)C6(C)CC6)[nH]5)cc4)cc3)[nH]2)CC1 [Compound S-160] | <10 fold
19 | O=C([C@@H]1C[C@H]1c1ccccc1)N1CCC[C@H]1c1ncc(-c2ccc(-c3ccc(-c4cnc([C@@H]5CCCN5C(=O)[C@@H]5C[C@H]5c5ccccc5)[nH]4)cc3)cc2)[nH]1 [Compound S-161] | >10 fold
20 | O=C(c1cncnc1)N1CCC[C@H]1c1ncc(-c2ccc(-c3ccc(-c4cnc([C@@H]5CCCN5C(=O)c5cncnc5)[nH]4)cc3)cc2)[nH]1 [Compound S-195] | <10 fold
21 | COc1ccc2c(C(=O)N3CCC[C@H]3c3ncc(-c4ccc(-c5ccc(-c6cnc([C@@H]7CCCN7C(=O)c7nccc8cc(OC)ccc78)[nH]6)cc5)cc4)[nH]3)nccc2c1 [Compound S-198] | >100 fold
22 | COc1cnc(C(=O)N2CCC[C@H]2c2ncc(-c3ccc(-c4ccc(-c5cnc([C@@H]6CCCN6C(=O)c6ncc(OC)c7ccccc67)[nH]5)cc4)cc3)[nH]2)c2ccccc12 [Compound S-199] | >100 fold
23 | O=C(c1cnc(Cl)c2ccccc12)N1CCC[C@H]1c1ncc(-c2ccc(-c3ccc(-c4cnc([C@@H]5CCCN5C(=O)c5cnc(Cl)c6ccccc56)[nH]4)cc3)cc2)[nH]1 [Compound S-200] | >100 fold

Row | SMILES | Fold-Synergistic 1a (Q30E)
24 | COc1cccc2c(C(=O)N3CCC[C@H]3c3ncc(-c4ccc(-c5ccc(-c6cnc([C@@H]7CCCN7C(=O)c7nccc8c(OC)cccc78)[nH]6)cc5)cc4)[nH]3)nccc12 [Compound S-201] | >100 fold
25 | O=C(c1nccc2ccccc12)N1CCC[C@H]1c1ncc(-c2ccc(-c3ccc(-c4cnc([C@@H]5CCCN5C(=O)c5nccc6ccccc56)[nH]4)cc3)cc2)[nH]1 [Compound S-202] | >100 fold
26 | O=C(c1cccc2cnccc12)N1CCC[C@H]1c1ncc(-c2ccc(-c3ccc(-c4cnc([C@@H]5CCCN5C(=O)c5cccc6cnccc56)[nH]4)cc3)cc2)[nH]1 [Compound S-203] | <10 fold
27 | COc1ccc2c(C(=O)N3CCC[C@H]3c3ncc(-c4ccc(-c5ccc(-c6cnc([C@@H]7CCCN7C(=O)c7nc(Cl)cc8cc(OC)ccc78)[nH]6)cc5)cc4)[nH]3)nc(Cl)cc2c1 [Compound S-204] | >100 fold
28 | O=C(c1nccc2c(Cl)cccc12)N1CCC[C@H]1c1ncc(-c2ccc(-c3ccc(-c4cnc([C@@H]5CCCN5C(=O)c5nccc6c(Cl)cccc56)[nH]4)cc3)cc2)[nH]1 [Compound S-206] | >100 fold
29 | CCOC(=O)N[C@H](c1ncc(-c2ccc(-c3ccc(-c4cnc([C@@H](NC(=O)OCC)C(C)C)[nH]4)cc3)cc2)[nH]1)C(C)C [Compound S-207] | >10 fold
30 | CCCOC(=O)N[C@H](c1ncc(-c2ccc(-c3ccc(-c4cnc([C@@H](NC(=O)OCCC)C(C)C)[nH]4)cc3)cc2)[nH]1)C(C)C [Compound S-208] | >100 fold
31 | CCCCOC(=O)N[C@H](c1ncc(-c2ccc(-c3ccc(-c4cnc([C@@H](NC(=O)OCCCC)C(C)C)[nH]4)cc3)cc2)[nH]1)C(C)C [Compound S-209] | >100 fold
32 | CC(C)[C@H](NC(=O)OCC(C)(C)C)c1ncc(-c2ccc(-c3ccc(-c4cnc([C@@H](NC(=O)OCC(C)(C)C)C(C)C)[nH]4)cc3)cc2)[nH]1 [Compound S-210] | >100 fold
33 | CC(C)COC(=O)N[C@H](c1ncc(-c2ccc(-c3ccc(-c4cnc([C@@H](NC(=O)OCC(C)C)C(C)C)[nH]4)cc3)cc2)[nH]1)C(C)C [Compound S-211] | >100 fold
34 | C#CCOC(=O)N[C@H](c1ncc(-c2ccc(-c3ccc(-c4cnc([C@@H](NC(=O)OCC#C)C(C)C)[nH]4)cc3)cc2)[nH]1)C(C)C [Compound S-212] | >10 fold
35 | CC(C)[C@H](NC(=O)OC1CCCC1)c1ncc(-c2ccc(-c3ccc(-c4cnc([C@@H](NC(=O)OC5CCCC5)C(C)C)[nH]4)cc3)cc2)[nH]1 [Compound S-213] | >100 fold
36 | CC(C)[C@H](NC(=O)OCc1ccccc1)c1ncc(-c2ccc(-c3ccc(-c4cnc([C@@H](NC(=O)OCc5ccccc5)C(C)C)[nH]4)cc3)cc2)[nH]1 [Compound S-215] | >100 fold
37 | O=C(OCc1ccccc1)N1CCC[C@H]1c1ncc(-c2ccc(-c3ccc(-c4cnc([C@@H]5CCCN5C(=O)OCc5ccccc5)[nH]4)cc3)cc2)[nH]1 [Compound S-216] | >10 fold
38 | CCOC(=O)N1CCC[C@H]1c1ncc(-c2ccc(-c3ccc(-c4cnc([C@@H]5CCCN5C(=O)OCC)[nH]4)cc3)cc2)[nH]1 [Compound S-217] | >10 fold
39 | CCCOC(=O)N1CCC[C@H]1c1ncc(-c2ccc(-c3ccc(-c4cnc([C@@H]5CCCN5C(=O)OCCC)[nH]4)cc3)cc2)[nH]1 [Compound S-218] | >10 fold
40 | CCCCOC(=O)N1CCC[C@H]1c1ncc(-c2ccc(-c3ccc(-c4cnc([C@@H]5CCCN5C(=O)OCCCC)[nH]4)cc3)cc2)[nH]1 [Compound S-219] | >10 fold
41 | CC(C)OC(=O)N1CCC[C@H]1c1ncc(-c2ccc(-c3ccc(-c4cnc([C@@H]5CCCN5C(=O)OC(C)C)[nH]4)cc3)cc2)[nH]1 [Compound S-220] | >10 fold
42 | CC(C)(C)COC(=O)N1CCC[C@H]1c1ncc(-c2ccc(-c3ccc(-c4cnc([C@@H]5CCCN5C(=O)OCC(C)(C)C)[nH]4)cc3)cc2)[nH]1 [Compound S-221] | >10 fold
43 | CC(C)COC(=O)N1CCC[C@H]1c1ncc(-c2ccc(-c3ccc(-c4cnc([C@@H]5CCCN5C(=O)OCC(C)C)[nH]4)cc3)cc2)[nH]1 [Compound S-222] | >10 fold
44 | O=C(Oc1ccccc1)N1CCC[C@H]1c1ncc(-c2ccc(-c3ccc(-c4cnc([C@@H]5CCCN5C(=O)Oc5ccccc5)[nH]4)cc3)cc2)[nH]1 [Compound S-223] | >100 fold
45 | C#CCOC(=O)N1CCC[C@H]1c1ncc(-c2ccc(-c3ccc(-c4cnc([C@@H]5CCCN5C(=O)OCC#C)[nH]4)cc3)cc2)[nH]1 [Compound S-224] | >10 fold
